Where two headings read alike, the source gives them in different places.
How the values were obtained:
[1] = system: HCV replicon cells Huh 9B; experiment: HCV replicon assay (luciferase readout); format: cell-based
In short: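 Compounds, made up at twice final strength (final DMSO 1%), were added to subgenomic replicon cells one day after plating. Incubation then ran 72 h at 37 °C, 5% CO2, without G418. Replication was quantified as firefly luciferase luminescence in lysed cells, with cytotoxicity assessed on a duplicate clear plate.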

[2] = system: HCV replicon cells Huh 9B; format: cell-based
[3] = Hepatitis C virus, 72 h, concentration reducing replicon level (luciferase activity) by 50% vs untreated cell control, 72 h incubation
[4] = concentration reducing total cell area by 50% relative to DMSO controls, methylene blue, absorbance 620 nm, 72 h incubation

Compound | IC50 [1] | TD50 [2] | IC50 [1, 3] | TD50 [2, 4]
Cc1ccc(C(=O)Nc2ccc(N3CCOCC3)cc2)cc1-c1ccc(C(=O)Nc2cccc(-c3ccn(C)n3)c2)cc1 [Example 26, 6-Methyl-biphenyl-3,4′-dicarboxylic acid 4′-{[3-(1-methyl-1H-pyrazol-3-yl)-phenyl]-amide} 3-[(4-morpholin-4-yl-phenyl)-amide]] | > 5000 nM | ** (key: * < 50 μM; ** > 50 μM) |  | 
Cc1ccc(NC(=O)C2CC2)cc1-c1ccc(C(=O)NCc2cccc(Cl)c2)cc1 [Example 216, 5′-(Cyclopropanecarbonyl-amino)-2′-methyl-biphenyl-4-carboxylic acid 3-chloro-benzylamide] |  |  | > 5000 nM | * (* < 50 μM)
CCC1(c2ccc(NC(=O)c3ccc(-c4cc(C(=O)Nc5ccc(N6CCOCC6)cc5)ccc4C)cc3)cc2)CCC(O)NC1=O (stereo not shown) [Example 71, 6-Methyl-biphenyl-3,4′-dicarboxylic acid 4′-{[4-(3-ethyl-6-hydroxy-2-oxo-piperidin-3-yl)-phenyl]-amide} 3-[(4-morpholin-4-yl-phenyl)-amide]] | < 1000 nM | * (key: * < 50 μM; ** > 50 μM) |  | 
CCC1(c2ccc(NC(=O)c3ccc(C)c(-c4ccc(C(=O)Nc5ccc(CN6CCS(=O)(=O)CC6)cc5)cc4)c3)cc2)CCC(=O)NC1=O (stereo not shown) [Example 138, 6-Methyl-biphenyl-3,4′-dicarboxylic acid 4′-{[4-(1,1-dioxo-1lambda*6*-thiomorpholin-4-ylmethyl)-phenyl]-amide} 3-{[4-(3-ethyl-2,6-dioxo-piperidin-3-yl)-phenyl]-amide}] | < 1000 nM | * (key: * < 50 μM; ** > 50 μM) |  | 
Cc1ccc(C(=O)Nc2ccc(N3CCOCC3)cc2)cc1-c1ccc(C(=O)NCc2cccc(CNC(=O)OC(C)(C)C)c2)cc1 [Example 47, [3-({[2′-Methyl-5′-(4-morpholin-4-yl-phenylcarbamoyl)-biphenyl-4-carbonyl]-amino}-methyl)-benzyl]-carbamic acid tert-butyl ester] |  |  | > 5000 nM | ** (** > 50 μM)
Cc1ccc(C(=O)Nc2ccc(N3CCOCC3)cc2)cc1-c1ccc(C(=O)Nc2ccc3[nH]c(C(F)(F)F)nc3c2)cc1 [Example 38, 6-Methyl-biphenyl-3,4′-dicarboxylic acid 3-[(4-morpholin-4-yl-phenyl)-amide] 4′-[(2-trifluoromethyl-1H-benzoimidazol-5-yl)-amide]] | 1000 to 5000 nM | ** (key: * < 50 μM; ** > 50 μM) |  | 
Cc1cccc(CNC(=O)c2ccc(-c3cc(NC(=O)c4ccc(N5CCOCC5)cc4)ccc3C)cc2)c1 [Example 89, 2′-Methyl-5′-(4-morpholin-4-yl-benzoylamino)-biphenyl-4-carboxylic acid 3-methyl-benzylamide] |  |  | 1000 to 5000 nM | ** (** > 50 μM)
Cc1ccc(-c2noc(C3CCCCC3)n2)cc1-c1ccc(C(=O)Nc2ccc(CN3CCS(=O)(=O)CC3)cc2)cc1 [Example 206, 5′-(5-Cyclohexyl-[1,2,4]oxadiazol-3-yl)-2′-methyl-biphenyl-4-carboxylic acid [4-(1,1-dioxo-1lambda*6*-thiomorpholin-4-ylmethyl)-phenyl]-amide] |  |  | > 5000 nM | * (* < 50 μM)
Cc1ccc(C(=O)Nc2ccc(N3CCOCC3)cc2)cc1-c1ccc(NC(=O)c2ccc(CN(C)C)cc2)cc1 [Example 117, 4′-(4-Dimethylaminomethyl-benzoylamino)-6-methyl-biphenyl-3-carboxylic acid (4-morpholin-4-yl-phenyl)-amide] |  |  | 1000 to 5000 nM | * (* < 50 μM)
CNCC(=O)Nc1ccc(OC(F)(F)F)c(-c2ccc(C(=O)Nc3ccc(CN4CCN(S(=O)(=O)N(C)C)CC4)cc3)cc2)c1 [Example 240, 5′-(2-Methylamino-acetylamino)-2′-trifluoromethoxy-biphenyl-4-carboxylic acid [4-(4-dimethylsulfamoyl-piperazin-1-ylmethyl)-phenyl]-amide] |  |  | < 1000 nM | * (* < 50 μM)
Cc1ccc(NC(=O)C2CCCCC2)cc1-c1ccc(C(=O)Nc2ccc(-n3cncn3)cc2)cc1 [Example 219, 5′-(Cyclohexanecarbonyl-amino)-2′-methyl-biphenyl-4-carboxylic acid (4-[1,2,4]triazol-1-yl-phenyl)-amide] |  |  | 1000 to 5000 nM | * (* < 50 μM)
Cc1ccc(NC(=O)c2cncs2)cc1-c1ccc(C(=O)Nc2ccc(CN3CCS(=O)(=O)CC3)cc2)cc1 [Example 179, Thiazole-5-carboxylic acid {4′-[4-(1,1-dioxo-1lambda*6*-thiomorpholin-4-ylmethyl)-phenylcarbamoyl]-6-methyl-biphenyl-3-yl}-amide] |  |  | < 1000 nM | * (* < 50 μM)
Cc1ccc(C(=O)Nc2ccc(N3CCOCC3)cc2)cc1-c1ccc(C(=O)NCc2cccc(Cl)c2)cc1 [Example 83, 6-Methyl-biphenyl-3,4′-dicarboxylic acid 4′-(3-chloro-benzylamide) 3-[(4-morpholin-4-yl-phenyl)-amide]] | 1000 to 5000 nM | ** (key: * < 50 μM; ** > 50 μM) |  | 
Cc1ccc(C(=O)Nc2ccc(N3CCOCC3)cc2)cc1-c1ccc(C(=O)Nc2ccc(Br)cc2)cc1 [Example 7, 6-Methyl-biphenyl-3,4′-dicarboxylic acid 4′-[(4-bromo-phenyl)-amide] 3-[(4-morpholin-4-yl-phenyl)-amide]] | 1000 to 5000 nM | * (key: * < 50 μM; ** > 50 μM) |  | 
Cc1ccc(NC(=O)c2cccnc2)cc1-c1ccc(C(=O)Nc2ccc(CN3CCS(=O)(=O)CC3)cc2)cc1 [Example 156, N-{4′-[4-(1,1-Dioxo-1lambda*6*-thiomorpholin-4-ylmethyl)-phenylcarbamoyl]-6-methyl-biphenyl-3-yl}-nicotinamide] |  |  | 1000 to 5000 nM | * (* < 50 μM)
Cc1ccc(C(=O)Nc2ccc(N3CCOCC3)cc2)cc1-c1ccc(C(=O)Nc2ccc(CN3CCNCC3)cc2)cc1 [Example 82, 6-Methyl-biphenyl-3,4′-dicarboxylic acid 3-[(4-morpholin-4-yl-phenyl)-amide] 4′-[(4-piperazin-1-ylmethyl-phenyl)-amide]] | 1000 to 5000 nM | * (key: * < 50 μM; ** > 50 μM) |  | 
Cc1ccc(C(=O)Nc2ccc(N3CCOCC3)cc2)cc1-c1ccc(NC(=O)c2ccc(N3CCOCC3)cc2)cc1 [Example 119, 6-Methyl-4′-(4-morpholin-4-yl-benzoylamino)-biphenyl-3-carboxylic acid (4-morpholin-4-yl-phenyl)-amide] |  |  | 1000 to 5000 nM | ** (** > 50 μM)
Cc1ccc(C(=O)Nc2ccc(N3CCOCC3)cc2)cc1-c1ccc(C(=O)Nc2cccc(Br)c2)cc1 [Example 1, 6-Methyl-biphenyl-3,4′-dicarboxylic acid 4′-[(3-bromo-phenyl)-amide] 3-[(4-morpholin-4-yl-phenyl)-amide]] | 1000 to 5000 nM | ** (key: * < 50 μM; ** > 50 μM) |  | 
Cc1ccc(C(=O)Nc2ccc(N3CCOCC3)cc2)cc1-c1ccc(C(=O)Nc2ccc(-c3cc[nH]n3)cc2)cc1 [Example 56, 6-Methyl-biphenyl-3,4′-dicarboxylic acid 3-[(4-morpholin-4-yl-phenyl)-amide] 4′-{[4-(1H-pyrazol-3-yl)-phenyl]-amide}] | < 1000 nM | * (key: * < 50 μM; ** > 50 μM) |  | 
Cc1ccc(C(=O)Nc2ccc(N3CCOCC3)cc2)cc1-c1ccc(C(=O)N2CCN(c3cccc(Cl)c3Cl)CC2)cc1 [Example 37, 4′-[4-(2,3-Dichloro-phenyl)-piperazine-1-carbonyl]-6-methyl-biphenyl-3-carboxylic acid (4-morpholin-4-yl-phenyl)-amide] |  |  | > 5000 nM | ** (** > 50 μM)
Cc1ccc(C(=O)Nc2ccc(N3CCOCC3)cc2)cc1-c1ccc(C(=O)Nc2cc(Br)cc3cc[nH]c23)cc1 [Example 55, 6-Methyl-biphenyl-3,4′-dicarboxylic acid 4′-[(5-bromo-1H-indol-7-yl)-amide] 3-[(4-morpholin-4-yl-phenyl)-amide]] | 1000 to 5000 nM | ** (key: * < 50 μM; ** > 50 μM) |  | 
Cc1ccc(C(=O)Nc2ccc(N3CCOCC3)cc2)cc1-c1ccc(C(=O)Nc2ccc(-c3ccno3)cc2)cc1 [Example 28, 6-Methyl-biphenyl-3,4′-dicarboxylic acid 4′-[(4-isoxazol-5-yl-phenyl)-amide] 3-[(4-morpholin-4-yl-phenyl)-amide]] | < 1000 nM | ** (key: * < 50 μM; ** > 50 μM) |  | 
CC(=O)Nc1cccc(NC(=O)c2ccc(-c3cc(C(=O)Nc4ccc(N5CCOCC5)cc4)ccc3C)cc2)c1 [Example 61, 6-Methyl-biphenyl-3,4′-dicarboxylic acid 4′-[(3-acetylamino-phenyl)-amide] 3-[(4-morpholin-4-yl-phenyl)-amide]] | 1000 to 5000 nM | ** (key: * < 50 μM; ** > 50 μM) |  | 
Cc1ccc(CNc2cccc(Br)c2)cc1-c1ccc(C(=O)Nc2ccc(CN3CCS(=O)(=O)CC3)cc2)cc1 [Example 198, 5′-[(3-Bromo-phenylamino)-methyl]-2′-methyl-biphenyl-4-carboxylic acid [4-(1,1-dioxo-1lambda*6*-thiomorpholin-4-ylmethyl)-phenyl]-amide] |  |  | 1000 to 5000 nM | * (* < 50 μM)
Cc1cccc(CNC(=O)c2ccc(-c3cc(NC(=O)c4cn[nH]c4)ccc3C)cc2)c1 [Example 214, 1H-Pyrazole-4-carboxylic acid [6-methyl-4′-(3-methyl-benzylcarbamoyl)-biphenyl-3-yl]-amide] |  |  | > 5000 nM | * (* < 50 μM)
CN1CCN(Cc2ccc(NC(=O)c3ccc(-c4cc(NC(=O)C5CCCCC5)ccc4Cl)cc3)cc2)CC1 [Example 249, 2′-Chloro-5′-(cyclohexanecarbonyl-amino)-biphenyl-4-carboxylic acid [4-(4-methyl-piperazin-1-ylmethyl)-phenyl]-amide] |  |  | 1000 to 5000 nM | * (* < 50 μM)

From patent US8008303B2, “Biphenyl derivatives and their use in treating hepatitis C” (AstraZeneca AB, priority 2005, dated 2011)
